Source: BindingDB's records for doi:10.1016/j.bmcl.2019.01.031 (Merck, 2019)

Assays:
[1] = Inhibition of NS5A Y93H mutant in HCV genotype 1a assessed as decrease in viral replication
[2] = Inhibition of NS5A in HCV genotype 1a assessed as decrease in viral replication
[3] = Inhibition of NS5A in HCV genotype 2b assessed as decrease in viral replication
[4] = Inhibition of NS5A in HCV genotype 4a assessed as decrease in viral replication
[5] = Inhibition of NS5A in HCV genotype 1b assessed as decrease in viral replication
[6] = Inhibition of NS5A in HCV genotype 3a assessed as decrease in viral replication
[7] = Inhibition of NS5A in HCV genotype 2a assessed as decrease in viral replication
[8] = Inhibition of NS5A L31V mutant in HCV genotype 1a assessed as decrease in viral replication

Compound	EC50 [1] [nM]	EC50 [2] [nM]	EC50 [3] [nM]	EC50 [4] [nM]	EC50 [5] [nM]	EC50 [6] [nM]	EC50 [7] [nM]	EC50 [8] [nM]
COC(=O)N[C@H](C(=O)N1CCC[C@H]1c1ncc(-c2ccc3c(ccc4c(=O)c5cc(-c6cnc([C@@H]7CCCN7C(=O)[C@@H](NC(=O)OC)C(C)C)[nH]6)ccc5oc43)c2)[nH]1)C(C)C	66	0.02						
COC(=O)N[C@H](C(=O)N1CCC[C@H]1c1ncc(-c2ccc3c(c2)Oc2ccc4cc(-c5cnc([C@@H]6CCCN6C(=O)[C@@H](NC(=O)OC)C(C)C)[nH]5)ccc4c2C3(C)C)[nH]1)C(C)C	18	0.0029	11					
CC[C@@H]1c2ccc(-c3cnc([C@@H]4CCCN4C(=O)[C@@H](NC(=O)OC)C4CCOCC4)[nH]3)cc2Oc2ccc3cc(-c4cnc([C@@H]5CCCN5C[C@@H](NC(=O)OC)C5CCOCC5)[nH]4)ccc3c21	0.8	0.01	0.3	0.01	0.004	0.2		
COC(=O)N[C@H](C(=O)N1C[C@H](F)C[C@H]1c1ncc(-c2ccc3c(ccc4oc5cc(-c6cnc([C@@H]7C[C@@H](F)CN7C(=O)[C@@H](NC(=O)OC)C(C)C)[nH]6)ccc5c(=O)c43)c2)[nH]1)C(C)C	1.2	0.029	90		0.0045	> 1		
COC(=O)N[C@H](C(=O)N1CCC[C@H]1c1ncc(-c2ccc3c(c2)Oc2ccc4cc(-c5cnc([C@@H]6CCCN6C(=O)[C@@H](NC(=O)OC)C(C)C)[nH]5)ccc4c2[C@@H]3C)[nH]1)C(C)C	11	0.0046	37		0.0036	1.4		
COC(=O)N[C@H](C(=O)N1CCC[C@H]1c1ncc(-c2ccc3c(c2)Oc2ccc4cc(-c5cnc([C@@H]6CCCN6C[C@@H](NC(=O)OC)C6CCOCC6)[nH]5)ccc4c2C3(C)C)[nH]1)C1CCOCC1	0.7	0.002	0.3	0.006	0.004	0.08		
CCC1c2ccc(-c3cnc([C@@H]4CCCN4C(=O)[C@@H](NC(=O)OC)C(C)C)[nH]3)cc2Oc2ccc(-c3cnc([C@@H]4CCCN4C(=O)[C@@H](NC(=O)OC)C(C)C)[nH]3)cc21 (some centres not stated)	24	0.02			0.004	0.07	0.005	
CCN(CC)[C@@H](C(=O)N1C[C@H](F)C[C@H]1c1ncc(-c2ccc3c(ccc4oc5cc(-c6cnc([C@@H]7C[C@@H](F)CN7C(=O)[C@@H](c7ccccc7)N(CC)CC)[nH]6)ccc5c(=O)c43)c2)[nH]1)c1ccccc1	506	0.31	797			0.026		
CC[C@H]1c2ccc(-c3cnc([C@@H]4CCCN4C(=O)[C@@H](NC(=O)OC)C(C)C)[nH]3)cc2Oc2ccc3cc(-c4cnc([C@@H]5CCCN5C(=O)[C@@H](NC(=O)OC)C(C)C)[nH]4)ccc3c21	12	0.005	0.78			1.1		
COC(=O)N[C@H](C(=O)N1CCC[C@H]1c1ncc(-c2ccc3c(c2)Oc2ccc4cc(-c5cnc([C@@H]6CCCN6C[C@@H](NC(=O)OC)C6CCOCC6)[nH]5)ccc4c2[C@@H]3C)[nH]1)C1CCOCC1	0.5	0.005	0.5	0.004	0.006	0.06		0.03
COC(=O)N[C@H](C(=O)N1CCC[C@H]1c1ncc(-c2ccc3c(=O)c4cc(-c5cnc([C@@H]6CCCN6C(=O)[C@@H](NC(=O)OC)C(C)C)[nH]5)ccc4oc3c2)[nH]1)C(C)C	1730	0.01			0.002		0.1	
COC(=O)N[C@H](C(=O)N1CCC[C@H]1c1ncc(-c2ccc3c(ccc4oc5ccc(-c6cnc([C@@H]7CCCN7C(=O)[C@@H](NC(=O)OC)C(C)C)[nH]6)cc5c(=O)c43)c2)[nH]1)C(C)C	> 100	0.2	> 100		0.1	> 1		
COC(=O)N[C@H](C(=O)N1C[C@H](F)C[C@H]1c1ncc(-c2ccc3c(ccc4oc5cc(-c6cnc([C@@H]7C[C@@H](F)CN7C(=O)[C@@H](NC(=O)OC)C7CCOCC7)[nH]6)ccc5c(=O)c43)c2)[nH]1)C1CCOCC1	0.18	0.084	3.5			5.8		
COC(=O)N[C@H](C(=O)N1CCC[C@H]1c1ncc(-c2ccc3c(c2)C(C)c2ccc4cc(-c5cnc([C@@H]6CCCN6C(=O)[C@@H](NC(=O)OC)C(C)C)[nH]5)ccc4c2O3)[nH]1)C(C)C (some centres not stated)	49	0.0057						
CCC1(CC)c2ccc(-c3cnc([C@@H]4CCCN4C(=O)[C@@H](NC(=O)OC)C(C)C)[nH]3)cc2Oc2ccc3cc(-c4cnc([C@@H]5CCCN5C(=O)[C@@H](NC(=O)OC)C(C)C)[nH]4)ccc3c21	4.1	0.002	3.3			0.58		
COC(=O)N[C@H](C(=O)N1CCC[C@H]1c1ncc(-c2ccc3c(c2)Oc2ccc4cc(-c5cnc([C@@H]6CCCN6C[C@@H](NC(=O)OC)C6CCOCC6)[nH]5)ccc4c2[C@H]3C)[nH]1)C1CCOCC1	0.4	0.004	0.02	0.009	0.004	0.04		0.03
COC(=O)N[C@H](C(=O)N1CCC[C@H]1c1ncc(-c2ccc3c(ccc4oc5cc(-c6cnc([C@@H]7CCCN7C(=O)[C@@H](NC(=O)OC)C(C)C)[nH]6)ccc5c(=O)c43)c2)[nH]1)C(C)C	18	0.003	14		0.003	> 1		
COC(=O)N[C@H](C(=O)N1CCC[C@H]1c1ncc(-c2ccc3c(F)c4oc5ccc(-c6cnc([C@@H]7CCCN7C(=O)[C@@H](NC(=O)OC)C(C)C)[nH]6)cc5c(=O)c4cc3c2)[nH]1)C(C)C	> 100	> 1	> 100		> 1	> 1		
CCC1(CC)c2ccc(-c3cnc([C@@H]4CCCN4C(=O)[C@@H](NC(=O)OC)C(C)C)[nH]3)cc2Oc2cc3ccc(-c4cnc([C@@H]5CCCN5C(=O)[C@@H](NC(=O)OC)C(C)C)[nH]4)cc3cc21	3.3	0.002	4.5			1.1		
CC[C@H]1c2ccc(-c3cnc([C@@H]4CCCN4C(=O)[C@@H](NC(=O)OC)C4CCOCC4)[nH]3)cc2Oc2ccc3cc(-c4cnc([C@@H]5CCCN5C[C@@H](NC(=O)OC)C5CCOCC5)[nH]4)ccc3c21	0.2	0.004				0.03		
COC(=O)N[C@H](C(=O)N1CCC[C@H]1c1ncc(-c2ccc3c(ccc4oc5cc(-c6cnc([C@@H]7CCCN7C(=O)[C@@H](NC(=O)OC)C7CCOCC7)[nH]6)ccc5c(=O)c43)c2)[nH]1)C1CCOCC1	2	0.041	0.48			0.72		
COC(=O)N[C@H](C(=O)N1CCC[C@H]1c1ncc(-c2ccc3c(c2)Oc2ccc4cc(-c5cnc([C@@H]6CCCN6C(=O)[C@@H](NC(=O)OC)C(C)C)[nH]5)ccc4c2[C@H]3C)[nH]1)C(C)C	7.2	0.0022	1.9		0.0016	0.72		
CC[C@@H]1c2ccc(-c3cnc([C@@H]4CCCN4C(=O)[C@@H](NC(=O)OC)C(C)C)[nH]3)cc2Oc2ccc3cc(-c4cnc([C@@H]5CCCN5C(=O)[C@@H](NC(=O)OC)C(C)C)[nH]4)ccc3c21	15	0.0027	13			1.7		
COC(=O)N[C@H](C(=O)N1CCC[C@H]1c1nc(-c2ccc3c(c2)O[C@@H](c2ccccc2)n2c-3cc3cc(-c4c[nH]c([C@@H]5CCCN5C(=O)[C@@H](NC(=O)OC)C(C)C)n4)ccc32)c[nH]1)C(C)C [Elbasvir]		0.004			0.003	0.02	0.003	
